The source of these data is the NIST ThermoML archive (doi:10.1021/je0503554).

The series can be described thus: activity coefficient (dimensionless); of the first substance listed, at infinite dilution; xn = mol fraction of the nth substance listed. The settings on record: Liquid, Chromatography, x1 = 0.

Where “and” joins values, the source holds several entries; their conditions need not be identical. Equal values may be shown once. ± gives the expanded uncertainty stated by the source.

Turning to `CCCc1ccccc1` [propylbenzene] + CCCCCC[n+]1ccn(C)c1.O=S(=O)([N-]S(=O)(=O)C(F)(F)F)C(F)(F)F, the activity coefficient reads like this: (333.35 K) 2.1 ± 0.14; (343.85 K) 2.08 ± 0.14; (354.25 K) 2.03 ± 0.14; (364.65 K) 2.02 ± 0.14; (375.15 K) 2 ± 0.14; (385.65 K) 1.96 ± 0.13.
For `CCC=O` [propanal] + CCCCCC[n+]1ccn(C)c1.O=S(=O)([N-]S(=O)(=O)C(F)(F)F)C(F)(F)F, the activity coefficient by setting is: (301.75 K) 0.453 ± 0.036; (312.25 K) 0.45 ± 0.036; (322.85 K) 0.444 ± 0.036; (333.35 K) 0.439 ± 0.035.
On to `CCCCCCCC=O` [octanal] + CCCCCC[n+]1ccn(C)c1.O=S(=O)([N-]S(=O)(=O)C(F)(F)F)C(F)(F)F, for which the activity coefficient was determined as 1.9 ± 0.13 (354.05 K); 1.92 ± 0.13 (364.45 K); 1.94 ± 0.13 (374.95 K); 1.96 ± 0.13 (385.45 K); 1.97 ± 0.13 (395.95 K).
Consider `CCCCO` [butan-1-ol] + CCCCCC[n+]1ccn(C)c1.O=S(=O)([N-]S(=O)(=O)C(F)(F)F)C(F)(F)F, for which the activity coefficient runs as follows: (322.65 K) 2.06 ± 0.14; (333.15 K) 1.83 ± 0.12; (343.65 K) 1.67 ± 0.11; (354.15 K) 1.53 ± 0.1.
With `CCCCCCC=O` [heptanal] + CCCCCC[n+]1ccn(C)c1.O=S(=O)([N-]S(=O)(=O)C(F)(F)F)C(F)(F)F, the activity coefficient was determined as 1.11 ± 0.07 (343.55 K); 1.07 ± 0.068 (354.05 K); 1.02 ± 0.064 (364.45 K); 0.97 ± 0.061 (374.95 K); 0.92 ± 0.058 (385.35 K); 0.9 ± 0.057 (395.95 K).
`CCCCC(=O)OC` [methyl pentanoate] + CCCCCC[n+]1ccn(C)c1.O=S(=O)([N-]S(=O)(=O)C(F)(F)F)C(F)(F)F: the activity coefficient (322.75 K) turned out to be 1.04 ± 0.07, the activity coefficient (333.25 K) was found to be 1.03 ± 0.06, the activity coefficient (343.65 K) stood at 1.01 ± 0.06 and the activity coefficient (354.15 K) turned out to be 0.99 ± 0.06.
On to `CCCCCCC(=O)OC` [methyl heptanoate] + CCCCCC[n+]1ccn(C)c1.O=S(=O)([N-]S(=O)(=O)C(F)(F)F)C(F)(F)F, for which the activity coefficient is, setting by setting: (354.15 K) 1.6 ± 0.11; (364.65 K) 1.52 ± 0.1; (375.15 K) 1.44 ± 0.09; (385.65 K) 1.38 ± 0.09.
`CC(C)=O` [acetone] + CCCCCC[n+]1ccn(C)c1.O=S(=O)([N-]S(=O)(=O)C(F)(F)F)C(F)(F)F: the activity coefficient runs as follows: (301.75 K) 0.352 ± 0.032; (302.25 K) 0.352 ± 0.032; (312.25 K) 0.357 ± 0.033; (322.85 K) 0.362 ± 0.033; (333.35 K) 0.366 ± 0.033; (343.85 K) 0.371 ± 0.033. Besides, the activity coefficient (354.25 K) was 0.375 ± 0.033.
With `CC(C)CO` [2-methyl-1-propanol] + CCCCCC[n+]1ccn(C)c1.O=S(=O)([N-]S(=O)(=O)C(F)(F)F)C(F)(F)F, the activity coefficient stood at 2.46 ± 0.17 (301.65 K), 2.19 ± 0.15 (312.15 K), 1.9 ± 0.13 (322.85 K) and 1.68 ± 0.11 (333.35 K).
`C=CCCCCCCC` [1-nonene] + CCCCCC[n+]1ccn(C)c1.O=S(=O)([N-]S(=O)(=O)C(F)(F)F)C(F)(F)F: the activity coefficient reads like this: (312.25 K) 12.5 ± 0.85; (322.75 K) 11.8 ± 0.81; (333.15 K) 11.2 ± 0.76; (333.35 K) 11.1 ± 0.75; (343.75 K) 10.5 ± 0.71; (354.15 K) 9.99 ± 0.68. Where the note is “364.55 K”, the activity coefficient is 9.54 ± 0.65.
Take `C=CCCCCCCCCCC` [1-dodecene] + CCCCCC[n+]1ccn(C)c1.O=S(=O)([N-]S(=O)(=O)C(F)(F)F)C(F)(F)F: the activity coefficient is 25.6 ± 1.8 (333.15 K); 23.1 and 22.7 (343.75 K); 21.1 and 20.5 (354.15 K); 19.3 ± 1.3 (364.55 K); 18.7 ± 1.3 (364.65 K); 16.9 ± 1.1 (374.95 K).
Take `C1=CCCCC1` [cyclohexene] + CCCCCC[n+]1ccn(C)c1.O=S(=O)([N-]S(=O)(=O)C(F)(F)F)C(F)(F)F: the activity coefficient reads like this: (301.85 K) 3.41 ± 0.23; (312.25 K) 3.24 ± 0.22; (322.85 K) 3.08 ± 0.21; (333.25 K) 2.94 ± 0.2; (343.75 K) 2.83 ± 0.19.
Turning to `C1COCCO1` [1,4-dioxane] + CCCCCC[n+]1ccn(C)c1.O=S(=O)([N-]S(=O)(=O)C(F)(F)F)C(F)(F)F, the activity coefficient amounted to 0.04 (375.15 K) and 0.047 (396.15 K).
On to `OC1CCCCC1` [cyclohexanol] + CCCCCC[n+]1ccn(C)c1.O=S(=O)([N-]S(=O)(=O)C(F)(F)F)C(F)(F)F, for which the activity coefficient turned out to be 1.87 ± 0.13 (354.05 K); 1.6 ± 0.11 (364.55 K); 1.43 ± 0.09 (374.95 K); 1.29 ± 0.08 (385.45 K); 1.2 ± 0.08 (395.95 K).
Consider `CCCCC` [pentane] + CCCCCC[n+]1ccn(C)c1.O=S(=O)([N-]S(=O)(=O)C(F)(F)F)C(F)(F)F, for which the activity coefficient is, setting by setting: (301.95 K) 6.26 ± 0.43; (312.45 K) 5.44 ± 0.37; (323.05 K) 5.33 ± 0.36; (333.45 K) 4.72 ± 0.32; (343.95 K) 4.09 ± 0.28.
Regarding `CCCCCCCC` [octane] + CCCCCC[n+]1ccn(C)c1.O=S(=O)([N-]S(=O)(=O)C(F)(F)F)C(F)(F)F, the activity coefficient by setting is: (300.95 K) 15.2 ± 1; (312.25 K) 14.3 ± 0.98; (322.85 K) 13.2 ± 0.9; (333.25 K) 12.2 ± 0.84; (343.75 K) 11.5 ± 0.78.
With `CCc1ccccc1` [ethylbenzene] + CCCCCC[n+]1ccn(C)c1.O=S(=O)([N-]S(=O)(=O)C(F)(F)F)C(F)(F)F, the activity coefficient was 1.55 ± 0.1 (322.85 K), 1.55 ± 0.1 (333.35 K), 1.54 ± 0.1 (343.85 K) and 1.53 ± 0.1 (354.25 K).
As to `CCCCCC` [hexane] + CCCCCC[n+]1ccn(C)c1.O=S(=O)([N-]S(=O)(=O)C(F)(F)F)C(F)(F)F, the activity coefficient is, setting by setting: (301.85 K) 8.03 ± 0.55; (312.25 K) 7.65 ± 0.52; (322.85 K) 7.41 ± 0.51; (333.25 K) 6.94 ± 0.47; (343.75 K) 6.74 ± 0.46.
Regarding `CCO` [ethanol] + CCCCCC[n+]1ccn(C)c1.O=S(=O)([N-]S(=O)(=O)C(F)(F)F)C(F)(F)F, the activity coefficient came to 1.95 ± 0.13 (301.95 K); 1.71 ± 0.11 (312.45 K); 1.51 ± 0.1 (323.05 K); 1.35 ± 0.09 (333.45 K); 1.2 ± 0.08 (343.95 K); 1.08 ± 0.07 (354.45 K).
Turning to `C=CCCCCCCCCC` [1-undecene] + CCCCCC[n+]1ccn(C)c1.O=S(=O)([N-]S(=O)(=O)C(F)(F)F)C(F)(F)F, the activity coefficient came out at 21 ± 1.4 (322.65 K); 19.2 ± 1.3 (333.15 K); 17.4 ± 1.2 (343.75 K); 15.4 ± 1.1 (359.4 K); 14.3 ± 0.97 (369.85 K); 14.1 ± 0.96 (375.05 K).
For the compound `CCCCCCCO` [heptan-1-ol] + CCCCCC[n+]1ccn(C)c1.O=S(=O)([N-]S(=O)(=O)C(F)(F)F)C(F)(F)F, the activity coefficient was 4.61 ± 0.31 (354.05 K), 4.13 ± 0.28 (364.63 K), 3.73 ± 0.25 (375.05 K) and 3.42 ± 0.23 (385.6 K).
Take `CCC(C)(C)O` [2-methylbutan-2-ol] + CCCCCC[n+]1ccn(C)c1.O=S(=O)([N-]S(=O)(=O)C(F)(F)F)C(F)(F)F: the activity coefficient by setting is: (301.65 K) 1.7 ± 0.11; (312.25 K) 1.53 ± 0.1; (322.75 K) 1.4 ± 0.09; (333.25 K) 1.3 ± 0.08; (343.75 K) 1.22 ± 0.08; (354.05 K) 1.14 ± 0.07. Under “364.55 K”, the activity coefficient is 1.06 ± 0.07.
Take `CCCCc1ccccc1` [butylbenzene] + CCCCCC[n+]1ccn(C)c1.O=S(=O)([N-]S(=O)(=O)C(F)(F)F)C(F)(F)F: the activity coefficient was 2.72 ± 0.19 (354.25 K), 2.69 ± 0.18 (364.65 K), 2.66 ± 0.18 (375.15 K) and 2.62 ± 0.18 (385.65 K).
As for `CCCCCCO` [hexan-1-ol] + CCCCCC[n+]1ccn(C)c1.O=S(=O)([N-]S(=O)(=O)C(F)(F)F)C(F)(F)F, the activity coefficient stood at 2.18 ± 0.15 (354.05 K); 1.97 ± 0.13 (364.55 K); 1.82 ± 0.12 (374.95 K); 1.67 ± 0.11 (385.45 K); 1.56 ± 0.1 (395.95 K).
As to `CCCCCc1ccccc1` [pentylbenzene] + CCCCCC[n+]1ccn(C)c1.O=S(=O)([N-]S(=O)(=O)C(F)(F)F)C(F)(F)F, the activity coefficient reads like this: (364.65 K) 3.38 ± 0.23; (375.15 K) 3.37 ± 0.23; (385.65 K) 3.37 ± 0.23.
